Structures are written as SMILES. In brackets after ≈: the same amount, converted by molar mass.

Experimental findings from US11247981B2, “Metalloenzyme inhibitor compounds” (Mycovia Pharmaceuticals, Inc., priority 2012, dated 2022) are described below.

The subject of the assay is C. albicans. The experiment in a line: Minimum Inhibitory Concentration (MIC), CLSI M27-A2. It is filed as cell-based. As to conditions: rating scale in μg/mL. As to the method:
A. Minimum Inhibitory Concentration (MIC) Compounds were assessed for their ability to inhibit the growth of common strains of fungus, C. albicans using a standardized procedure (CLSI M27-A2). Stock solutions of the test compounds and standards were prepared in DMSO at 1,600 μg/mL (C. albicans). Eleven, serial, one-half dilutions of compounds were prepared in 96-well plates in RPMI+MOPS. The assay concentration ranges were 8-0.001 μg/mL (C. albicans). Cell suspensions of C. albicans were prepared and added to each well at concentrations of approximately 3.7×10^3 colony-forming-units per milliliter (cfu/mL). All testing was in duplicate. The inoculated plates were incubated for approximately 48 h at 35±1° C. At the completion of incubation the wells of each plate were evaluated visually for the presence of fungal growth. […] For QC purposes C. krusei isolate ATCC 6258 (4.0×10^3 cfu/mL) was included in the VOR assay.

Take `OC(Cn1cnnn1)(c1ccc(F)cc1F)C(F)(F)c1ccc(-c2ccc(OCC(F)(F)F)cc2)cn1` (centres unmarked) [Example 11, 2-(2,4-Difluorophenyl)-1,1-difluoro-3-(1H-tetrazol-1-yl)-1-(5-(4-(2,2,2-trifluoroethoxy)phenyl)pyridin-2-yl)propan-2-ol]: the “Candida MIC Rating” value is “A (≤0.5)”.

Consider `OC(Cn1cnnn1)(c1ccc(F)cc1F)C(F)(F)c1ccc(-c2ccc(OCC(F)(F)F)cc2)cn1` (centres unmarked) [Example 39, 2-(2,4-Difluorophenyl)-1,1-difluoro-3-(1H-tetrazol-1-yl)-1-(5-(4-(2,2,2-trifluoroethoxy)phenyl)pyridin-2-yl)propan-2-ol], for which the “Candida MIC Rating” value was “C (>1.5 − 4)”.

For `CC(F)(c1ccc(-c2ccc(OC(F)(F)F)cc2)cn1)C(O)(Cn1cnnn1)c1ccc(F)cc1F` (centres unmarked) [Example 47, 2-(2,4-Difluorophenyl)-3-fluoro-1-(1H-tetrazol-1-yl)-3-(5-(4-(trifluoromethoxy)phenyl)-pyridin-2-yl)butan-2-ol], the “Candida MIC Rating” value is “A (≤0.5)”.

One may read the MIC as the smallest concentration in the dilution series that meets the test's criterion for growth inhibition. A low value points to greater potency. The molecule `CC(F)(c1ccc(-c2ccc(F)cc2)cn1)C(O)(Cn1cnnn1)c1ccc(F)cc1F` (centres unmarked) [Example 50, 2-(2,4-Difluorophenyl)-3-fluoro-3-(5-(4-fluorophenyl)pyridin-2-yl)-1-(1H-tetrazol-1-yl)butan-2-ol] displayed a minimal inhibitory concentration (MIC) (Candida albicans) of 1.5 to 4 µg/mL (≈ 3.38 to 9.02 µM).

Turning to `CC(F)(c1ccc(-c2ccc(F)cc2)cn1)C(O)(Cn1cnnn1)c1ccc(F)cc1F` (centres unmarked) [Example 51, 2-(2,4-Difluorophenyl)-3-fluoro-3-(5-(4-fluorophenyl)pyridin-2-yl)-1-(1H-tetrazol-1-yl)butan-2-ol], the “Candida MIC Rating” value is reported as “A (≤0.5)”.

In the case of `CC(F)(c1ccc(-c2ccc(C(F)(F)F)cc2)cn1)C(O)(Cn1cnnn1)c1ccc(F)cc1F` (centres unmarked) [Example 52], the “Candida MIC Rating” value is given as “C (>1.5 − 4)”.

In the case of `CC(F)(c1ccc(-c2ccc(C(F)(F)F)cc2)cn1)C(O)(Cn1cnnn1)c1ccc(F)cc1F` (centres unmarked) [Example 53], the “Candida MIC Rating” value was “B (>0.5 − 1.5)”.

With `CC(F)(c1ccc(-c2ccc(Cl)cc2)cn1)C(O)(Cn1cnnn1)c1ccc(F)cc1F` (centres unmarked) [Example 54, 3-(5-(4-Chlorophenyl)pyridin-2-yl)-2-(2,4-difluorophenyl)-3-fluoro-1-(1H-tetrazol-1-yl)butan-2-ol], the “Candida MIC Rating” value was “C (>1.5 − 4)”.

Turning to `CC(F)(c1ccc(-c2ccc(Cl)cc2)cn1)C(O)(Cn1cnnn1)c1ccc(F)cc1F` (centres unmarked) [Example 55, 3-(5-(4-Chlorophenyl)pyridin-2-yl)-2-(2,4-difluorophenyl)-3-fluoro-1-(1H-tetrazol-1-yl)butan-2-ol], the “Candida MIC Rating” value is on record as “A (≤0.5)”.

Consider `CC(F)(c1ccc(-c2ccc(OCC(F)(F)F)cc2)cn1)C(O)(Cn1cnnn1)c1ccc(F)cc1F` (centres unmarked) [Example 56, 2-(2,4-Difluorophenyl)-3-fluoro-1-(1H-tetrazol-1-yl)-3-(5-(4-(2,2,2-trifluoroethoxy)phenyl)pyridin-2-yl)butan-2-ol], for which the “Candida MIC Rating” value is “C (>1.5 − 4)”.

For the molecule `CC(F)(c1ccc(-c2ccc(OCC(F)(F)F)cc2)cn1)C(O)(Cn1cnnn1)c1ccc(F)cc1F` (centres unmarked) [Example 57, 2-(2,4-Difluorophenyl)-3-fluoro-1-(1H-tetrazol-1-yl)-3-(5-(4-(2,2,2-trifluoroethoxy)phenyl)pyridin-2-yl)butan-2-ol], the “Candida MIC Rating” value is “A (≤0.5)”.
